{"source": "ChEMBL document CHEMBL3044551", "about": "“Synthesis of optically active N-(2-pyridyloxiran-2-ylmethyl) benzenesulfonamide derivatives and their herbicidal activity” (Biosci Biotechnol Biochem, 2001)", "key": {"Echinochloa oryzicola [1]": {"test_system": "Echinochloa oryzicola", "assay": "Herbicidal activity against Echinochloa oryzicola exposed to compound at 1.5 to two-leaf stage assessed as herbicidal rate scores at 0.5 kg ai/ha measured 2 weeks post compound treatment by pot test", "format": "functional"}, "Rotala indica": {"test_system": "Rotala indica", "assay": "Herbicidal activity against Rotala indica exposed to compound at 1.5 to 2 leaf stage assessed as herbicidal rate scores at 0.5 kg ai/ha measured 2 weeks post compound treatment by pot test", "format": "functional"}, "Echinochloa oryzicola [2]": {"test_system": "Echinochloa oryzicola", "assay": "Herbicidal activity against germinated Echinochloa oryzicola assessed as inhibition of above-ground shoot length growth after 7 days post compound treatment by petri dish test", "format": "functional", "conditions": "for EC50: 168 h, read-out: ED50 (the source's name)"}, "Oryza sativa [3]": {"test_system": "Oryza sativa", "assay": "Toxicity in direct seeded Oryza sativa (rice) plants assessed as phytotoxicity scores at 0.5 kg ai/ha measured 2 weeks post compound treatment", "format": "organism-based", "conditions": "in vivo, 336 h"}, "Cyperus serotinus": {"test_system": "Cyperus serotinus", "assay": "Herbicidal activity against Cyperus serotinus exposed to compound at 1.5 to 2 leaf stage assessed as herbicidal rate scores at 0.5 kg ai/ha measured 2 weeks post compound treatment by pot test", "format": "functional"}, "[4]": {"test_system": "Schoenoplectiella juncoides", "assay": "Herbicidal activity against Schoenoplectiella juncoides exposed to compound at 1.5 to two-leaf stage assessed as herbicidal rate scores at 0.5 kg ai/ha measured 2 weeks post compound treatment by pot test", "format": "functional"}, "Oryza sativa [5]": {"test_system": "Oryza sativa", "assay": "Toxicity in two-leaf stage Oryza sativa (rice) plants exposed to compound 3 days post transplantation assessed as phytotoxicity scores at 0.5 kg ai/ha measured 2 weeks post compound treatment", "format": "organism-based", "conditions": "in vivo, 336 h"}}, "note": "Active and inactive are the calls of the source. No cut-off for these calls is given here."}
{"molecule": "CN(C[C@]1(c2cccc(Cl)n2)CO1)S(=O)(=O)c1ccc2c(c1)CCCC2", "values": [{"measurement": "Activity", "setting": "Echinochloa oryzicola [1]", "value": 9}, {"measurement": "Activity", "setting": "Rotala indica", "value": 10}, {"measurement": "EC50", "setting": "Echinochloa oryzicola [2]", "value": 0.05, "unit": "µg/mL"}, {"measurement": "Activity", "setting": "Oryza sativa [3]", "value": 1}, {"measurement": "Activity", "setting": "Cyperus serotinus", "value": 9}, {"measurement": "Activity", "setting": "[4]", "value": 3}, {"measurement": "Activity", "setting": "Oryza sativa [5]", "value": 0}]}
{"molecule": "CN(CC1(c2cccc(Cl)n2)CO1)S(=O)(=O)c1ccc2c(c1)CCCC2", "note": "(racemic)", "values": [{"measurement": "Activity", "setting": "Echinochloa oryzicola [1]", "value": 8}, {"measurement": "Activity", "setting": "Rotala indica", "value": 10}, {"measurement": "EC50", "setting": "Echinochloa oryzicola [2]", "value": 0.11, "unit": "µg/mL"}, {"measurement": "Activity", "setting": "Oryza sativa [3]", "value": 0}, {"measurement": "Activity", "setting": "Cyperus serotinus", "value": 8}, {"measurement": "Activity", "setting": "[4]", "value": 2}, {"measurement": "Activity", "setting": "Oryza sativa [5]", "value": 0}]}
{"molecule": "Cc1cc(S(=O)(=O)N(C)C[C@]2(c3cccc(Cl)n3)CO2)ccc1Cl", "values": [{"measurement": "Activity", "setting": "Echinochloa oryzicola [1]", "value": 10}, {"measurement": "Activity", "setting": "Rotala indica", "value": 10}, {"measurement": "EC50", "setting": "Echinochloa oryzicola [2]", "value": 0.035, "unit": "µg/mL"}, {"measurement": "Activity", "setting": "Oryza sativa [3]", "value": 10}, {"measurement": "Activity", "setting": "Cyperus serotinus", "value": 10}, {"measurement": "Activity", "setting": "[4]", "value": 7}, {"measurement": "Activity", "setting": "Oryza sativa [5]", "value": 1}]}
{"molecule": "Cc1cc(S(=O)(=O)N(C)C[C@@]2(c3cccc(Cl)n3)CO2)ccc1Cl", "values": [{"measurement": "Activity", "setting": "Echinochloa oryzicola [1]", "value": 1}, {"measurement": "Activity", "setting": "Rotala indica", "value": 2}, {"measurement": "ED50", "setting": "Echinochloa oryzicola [2]", "value": "inactive"}, {"measurement": "Activity", "setting": "Oryza sativa [3]", "value": 0}, {"measurement": "Activity", "setting": "Cyperus serotinus", "value": 2}, {"measurement": "Activity", "setting": "[4]", "value": 0}, {"measurement": "Activity", "setting": "Oryza sativa [5]", "value": 0}]}
{"molecule": "CN(C[C@@]1(c2cccc(Cl)n2)CO1)S(=O)(=O)c1ccc2c(c1)CCCC2", "values": [{"measurement": "Activity", "setting": "Echinochloa oryzicola [1]", "value": 0}, {"measurement": "Activity", "setting": "Rotala indica", "value": 0}, {"measurement": "ED50", "setting": "Echinochloa oryzicola [2]", "value": "inactive"}, {"measurement": "Activity", "setting": "Oryza sativa [3]", "value": 0}, {"measurement": "Activity", "setting": "Cyperus serotinus", "value": 0}, {"measurement": "Activity", "setting": "[4]", "value": 0}, {"measurement": "Activity", "setting": "Oryza sativa [5]", "value": 0}]}
{"molecule": "Cc1cc(S(=O)(=O)N(C)CC2(c3cccc(Cl)n3)CO2)ccc1Cl", "note": "(racemic)", "values": [{"measurement": "Activity", "setting": "Echinochloa oryzicola [1]", "value": 10}, {"measurement": "Activity", "setting": "Rotala indica", "value": 9}, {"measurement": "EC50", "setting": "Echinochloa oryzicola [2]", "value": 0.07, "unit": "µg/mL"}, {"measurement": "Activity", "setting": "Oryza sativa [3]", "value": 10}, {"measurement": "Activity", "setting": "Cyperus serotinus", "value": 9}, {"measurement": "Activity", "setting": "[4]", "value": 4}, {"measurement": "Activity", "setting": "Oryza sativa [5]", "value": 0}]}
